Assay results from PubChem BioAssay (NCI).
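Five concentrations, 48 hours, 96-well plates. At the TGI there is no net growth.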

What was measured:
Test in all cases: DTP human tumour cell line panel, 48 h
SF-539 CNS = tested on: SF-539 CNS
HT29 colon = tested on: HT29 colon
RPMI-8226 leukemia = tested on: RPMI-8226 leukemia
OVCAR-3 ovarian = tested on: OVCAR-3 ovarian
OVCAR-5 ovarian = tested on: OVCAR-5 ovarian
NCI-H522 lung = tested on: NCI-H522 lung
SK-OV-3 ovarian = tested on: SK-OV-3 ovarian
OVCAR-8 ovarian = tested on: OVCAR-8 ovarian
786-0 renal = tested on: 786-0 renal
MDA-MB-231 breast = tested on: MDA-MB-231 breast

Row | Structure (SMILES) | TGI (SF-539 CNS) | TGI (HT29 colon) | TGI (RPMI-8226 leukemia) | TGI (OVCAR-3 ovarian) | TGI (OVCAR-5 ovarian) | TGI (NCI-H522 lung) | TGI (SK-OV-3 ovarian) | TGI (OVCAR-8 ovarian) | TGI (786-0 renal) | TGI (MDA-MB-231 breast)
1 | CN(C)CCNC(=O)c1cccc2c1C(=O)c1ccccc1C2=O | > 100 µM | > 86.6 µM | > 100 µM | 52.4 µM | > 100 µM | 69.1 µM | > 100 µM | 88.3 µM | – | –
2 | CC(C)(C)OC(=O)NC(CSCc1ccc(C(=O)c2ccccc2)cc1)C(=O)N1CCN(CCCCN2c3ccccc3Sc3cc(N=[N+]=[N-])ccc32)CC1 (centres undefined) | > 100 µM | > 100 µM | – | > 100 µM | > 100 µM | > 100 µM | > 100 µM | > 100 µM | > 100 µM | > 100 µM
3 | COC(=O)c1ccc(OCCn2nnc(C(=O)NN)c2C(=O)NN)cc1 | – | > 100 µM | > 100 µM | > 100 µM | > 100 µM | – | – | > 100 µM | > 100 µM | > 100 µM
4 | CC(C)CC1c2[nH]c3ccccc3c2C[C@H]2C(=O)NC(Cc3c[nH]c4ccccc34)C(=O)N12 (some centres undefined) | – | 31.2 µM | 48.7 µM | 30.5 µM | 48 µM | 29.5 µM | 49 µM | 39 µM | 40.2 µM | 49.9 µM
5 | COP(=O)(OC)C(N)Cc1c[nH]c2ccccc12 (centres undefined) | – | > 100 µM | > 100 µM | > 100 µM | > 100 µM | > 100 µM | > 100 µM | > 100 µM | – | > 100 µM
6 | Cc1cc(=O)[nH]c2cc(NC(=O)C(C)NC(=O)C(C)NC(=O)C(C)NC(=O)OC(C)(C)C)ccc12 (centres undefined) | > 15 µM | > 15 µM | – | – | > 15 µM | > 15 µM | – | > 15 µM | > 15 µM | > 15 µM
7 | O=C(Cn1c2ccc(Br)cc2c2nc3ccccc3nc21)NCc1ccccc1 | – | > 100 µM | > 100 µM | > 100 µM | > 100 µM | – | > 100 µM | > 100 µM | 39 µM | > 100 µM
8 | O=c1c(NCc2ccccc2)c(C2(c3ccccc3F)SCCCS2)c1=O | > 100 µM | > 100 µM | – | > 100 µM | > 100 µM | > 100 µM | > 100 µM | > 100 µM | > 100 µM | > 100 µM
9 | CC1OC(NCCNCCNC2OC(C)C(O)C(O)C2O)C(O)C(O)C1O (centres undefined) | > 100 µM | > 100 µM | > 100 µM | > 100 µM | > 100 µM | > 100 µM | – | > 100 µM | > 100 µM | > 100 µM
10 | CC(=O)OCC1OC(n2c(C)c(C)cc(C#N)c2=S)C(OC(C)=O)C(OC(C)=O)C1OC(C)=O (centres undefined) | > 100 µM | > 100 µM | > 100 µM | > 100 µM | > 100 µM | > 100 µM | – | > 100 µM | > 100 µM | > 100 µM
11 | COc1ccc(C2CC(c3sc(Nc4ccc(C)cc4)nc3C)=NN2)cc1 (centres undefined) | 29 µM | 25.6 µM | 41.4 µM | 30.1 µM | 39.2 µM | 31.8 µM | 44.1 µM | 35.9 µM | – | –
12 | CCC(C)C(Nc1c2ccccc2nc2c(C(=O)NCCN(C)C)cccc12)C(=O)O (centres undefined) | – | 17.1 µM | > 100 µM | > 100 µM | > 100 µM | 56.8 µM | > 100 µM | > 100 µM | > 100 µM | 65.5 µM
13 | O=C(COc1cc(=O)oc2ccccc12)c1ccccc1 | 58.7 µM | 45.7 µM | > 100 µM | 39.9 µM | > 100 µM | 89.9 µM | – | 93.8 µM | > 100 µM | > 100 µM
14 | CCOC(CBr)OC1C(=O)OCC1(C)C (centres undefined) | – | > 100 µM | > 100 µM | – | > 100 µM | > 100 µM | > 100 µM | > 100 µM | > 100 µM | > 100 µM
15 | CCOC(=O)/C(C(N)=O)=C(\O)C(=O)/C=C(\O)c1ccc(Cl)cc1 | – | 41.4 µM | 44.8 µM | 66.4 µM | 54.3 µM | 34.3 µM | > 100 µM | 31.7 µM | 32.2 µM | 32.2 µM
16 | O=C1C=C(NCCc2ccc(O)c([N+](=O)[O-])c2)C(=O)c2[nH]cnc21 | 90.5 µM | > 100 µM | > 100 µM | 46.1 µM | > 100 µM | 57.8 µM | – | 68.7 µM | > 100 µM | > 100 µM
17 | O=C(NC(=S)Nc1ccc(Br)cc1)c1ccc2c(c1)Sc1ccccc1O2 | > 100 µM | > 100 µM | – | > 100 µM | > 100 µM | > 100 µM | > 100 µM | > 100 µM | > 100 µM | > 100 µM
